Test results as given in patent publication US11965039B2, “Compstatin analogues and their medical uses” (priority 2018, dated 2024).
Starred links: 1 amine or outer side, 2 acyl side, 3 side chain; linkers in the order of their positions; H or OH if unused. Positions of bridges follow the written chain, without caps; N, C: chain ends. Non-standard residues stand in square brackets, D forms with d. Residues, ends and D or L forms follow the SMILES beside them. Groups on a side chain read outwards from the residue. *: point of attachment. Trp(1-Me) = Cn1cc(C[C@H](N)C(=O)O)c2ccccc21; C18 diacid = O=C(O)CCCCCCCCCCCCCCCCC(=O)*; C16 diacid = O=C(O)CCCCCCCCCCCCCCC(=O)*; γGlu = O=C(O)[C@H](CCC(=O)[*:2])N[*:1]; AEEA = NCCOCCOCC(=O)O; Sar = CNCC(=O)O

These compounds were tested on classical complement pathway (assay: In vitro haemolysis assay (inhibition of classical complement pathway)). Conditions: human serum, sensitized sheep red blood cells; Table 3, given as upper bounds; read-out: IC50, inhibition of hemolysis.
Type: cell-based, human
Procedure, shortened: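 Compound dilutions preincubated 15 min at room temperature with diluted human serum (titrated per batch for 70-90% maximal haemolysis), then antibody-sensitized sheep RBC (10^7/well) added for 30 min at 37 °C in Tris/casein buffer, pH 7.4. Stopped with EDTA; haemolysis read at 405 nm; IC50 by 4PL fit.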

SMILES	IC50 [nM]
CC[C@H](C)[C@@H]1NC(=O)[C@@H](NC(=O)[C@H](Cc2ccc(O)cc2)NC(=O)[C@H](C)NC(=O)[C@H](CO)NC(=O)CNC(=O)[C@H](CCC(=O)O)NC(C)=O)CSSC[C@@H](C(=O)N(C)CC(=O)N[C@@H](CCC(=O)O)C(=O)NCC(=O)N[C@@H](CCCCN)C(=O)N[C@@H](CCCCNC(=O)CC[C@H](NC(=O)CNC(=O)CC[C@H](NC(=O)CCCCCCCCCCCCCCCCC(=O)O)C(=O)O)C(=O)O)C(N)=O)NC(=O)[C@H](CCCNC(=N)N)NC(=O)[C@H](Cc2c[nH]cn2)NC(=O)[C@H](CCC(=O)O)NC(=O)CNC(=O)[C@H](Cc2c[nH]c3ccccc23)NC(=O)[C@H](CC(=O)O)NC(=O)[C@H](CCC(N)=O)NC(=O)[C@H](Cc2cn(C)c3ccccc23)NC1=O [Compound 110] (Ac-EGSAYCI[Trp(1-Me)]QDWGEHRC[Sar]EGKK([γGlu-Gly-γGlu-C18 diacid])-NH2; disulfide 6-16)	< 250
CC[C@H](C)[C@@H]1NC(=O)[C@@H](NC(=O)[C@H](Cc2ccccc2)NC(=O)[C@H](CCC(=O)O)NC(=O)[C@H](CO)NC(C)=O)CSSC[C@@H](C(=O)N(C)CC(=O)N[C@@H](CCC(=O)O)C(=O)NCC(=O)N[C@@H](CCC(=O)O)C(=O)NCCOCCOCC(=O)N[C@@H](CCCCNC(=O)CC[C@H](NC(=O)CNC(=O)CC[C@H](NC(=O)CCCCCCCCCCCCCCCCC(=O)O)C(=O)O)C(=O)O)C(N)=O)NC(=O)[C@H](CCCNC(=N)N)NC(=O)[C@H](Cc2c[nH]cn2)NC(=O)[C@H](CCC(=O)O)NC(=O)CNC(=O)[C@H](Cc2c[nH]c3ccccc23)NC(=O)[C@H](CC(=O)O)NC(=O)[C@H](CCC(N)=O)NC(=O)[C@H](Cc2cn(C)c3ccccc23)NC1=O [Compound 138] (Ac-SEFCI[Trp(1-Me)]QDWGEHRC[Sar]EGE[AEEA]K([γGlu-Gly-γGlu-C18 diacid])-NH2; disulfide 4-14)	< 100
CC[C@H](C)[C@@H]1NC(=O)[C@@H](NC(=O)CN(C)C(=O)[C@H](CCC(=O)O)NC(=O)[C@H](CO)NC(C)=O)CSSC[C@@H](C(=O)N[C@H](C(=O)N[C@@H](CCC(=O)O)C(=O)N[C@@H](C)C(N)=O)[C@@H](C)O)NC(=O)[C@H](CCCNC(=N)N)NC(=O)[C@H](Cc2c[nH]cn2)NC(=O)[C@H](CCC(=O)O)NC(=O)CN(C)C(=O)[C@H](Cc2c[nH]c3ccccc23)NC(=O)[C@H](CCC(=O)O)NC(=O)[C@H](CCC(N)=O)NC(=O)[C@H](Cc2cn(C)c3ccccc23)NC1=O [Compound 89, Ac-SE[Sar]C(1)I[1-Me-Trp]QEW[Sar]EHRC(1)TEA-NH2] (Ac-SE[Sar]CI[Trp(1-Me)]QEW[Sar]EHRCTEA-NH2; disulfide 4-14)	< 100
CC[C@H](C)[C@@H]1NC(=O)[C@@H](NC(=O)[C@H](Cc2ccccc2)NC(=O)[C@H](CCC(=O)O)NC(=O)[C@H](CO)NC(C)=O)CSSC[C@@H](C(=O)N(C)CC(=O)N[C@@H](CCC(=O)O)C(=O)NCC(=O)N[C@@H](C)C(=O)N[C@@H](CCCCNC(=O)COCCOCCNC(=O)CC[C@H](NC(=O)COCCOCCNC(=O)CNC(=O)CC[C@H](NC(=O)CCCCCCCCCCCCCCCCC(=O)O)C(=O)O)C(=O)O)C(N)=O)NC(=O)[C@H](CCCNC(=N)N)NC(=O)[C@H](Cc2c[nH]cn2)NC(=O)[C@H](CCC(=O)O)NC(=O)CNC(=O)[C@H](Cc2c[nH]c3ccccc23)NC(=O)[C@H](CC(=O)O)NC(=O)[C@H](CCC(N)=O)NC(=O)[C@H](Cc2cn(C)c3ccccc23)NC1=O [Compound 119] (Ac-SEFCI[Trp(1-Me)]QDWGEHRC[Sar]EGAK([AEEA-γGlu-AEEA-Gly-γGlu-C18 diacid])-NH2; disulfide 4-14)	< 100
CC[C@H](C)[C@@H]1NC(=O)[C@@H](NC(=O)[C@H](Cc2ccc(O)cc2)NC(=O)[C@H](C)NC(=O)[C@H](CO)NC(=O)CNC(=O)[C@H](CCC(=O)O)NC(C)=O)CSSC[C@@H](C(=O)N(C)CC(=O)N[C@@H](CCC(=O)O)C(N)=O)NC(=O)[C@H](CCCNC(=N)N)NC(=O)[C@H](Cc2c[nH]cn2)NC(=O)[C@H](CCC(=O)O)NC(=O)CNC(=O)[C@H](Cc2c[nH]c3ccccc23)NC(=O)[C@H](CCC(=O)O)NC(=O)[C@H](CCC(N)=O)NC(=O)[C@H](Cc2cn(C)c3ccccc23)NC1=O [Compound 70] (Ac-EGSAYCI[Trp(1-Me)]QEWGEHRC[Sar]E-NH2; disulfide 6-16)	< 100
CC[C@H](C)[C@H](NC(=O)[C@H](C)NC(=O)[C@H](CO)NC(C)=O)C(=O)N[C@H]1CSSC[C@@H](C(=O)N[C@H](C(=O)N[C@@H](CCC(=O)O)C(=O)NCC(N)=O)[C@@H](C)O)NC(=O)[C@H](CCCNC(=N)N)NC(=O)[C@H](Cc2c[nH]cn2)NC(=O)[C@H](CCC(=O)O)NC(=O)CNC(=O)[C@H](Cc2c[nH]c3ccccc23)NC(=O)[C@H](CC(=O)O)NC(=O)[C@H](CCC(N)=O)NC(=O)[C@H](Cc2c[nH]c3ccccc23)NC(=O)[C@H]([C@@H](C)CC)NC1=O [Compound 42] (Ac-SAICIWQDWGEHRCTEG-NH2; disulfide 4-14)	< 250
CC[C@H](C)[C@@H]1NC(=O)[C@@H](NC(=O)[C@H](Cc2ccccc2)NC(=O)[C@H](CCC(=O)O)NC(=O)[C@H](CO)NC(C)=O)CSSC[C@@H](C(=O)N(C)CC(=O)N[C@@H](CCC(=O)O)C(=O)NCC(=O)N[C@@H](CCC(=O)O)C(=O)NCCOCCOCC(=O)N[C@@H](CCC(=O)O)C(=O)N[C@@H](CO)C(=O)N[C@@H](CCCCNC(=O)CC[C@H](NC(=O)CNC(=O)CC[C@H](NC(=O)CCCCCCCCCCCCCCCCC(=O)O)C(=O)O)C(=O)O)C(N)=O)NC(=O)[C@H](CCCNC(=N)N)NC(=O)[C@H](Cc2c[nH]cn2)NC(=O)[C@H](CCC(=O)O)NC(=O)CNC(=O)[C@H](Cc2c[nH]c3ccccc23)NC(=O)[C@H](CC(=O)O)NC(=O)[C@H](CCC(N)=O)NC(=O)[C@H](Cc2cn(C)c3ccccc23)NC1=O [Compound 140] (Ac-SEFCI[Trp(1-Me)]QDWGEHRC[Sar]EGE[AEEA]ESK([γGlu-Gly-γGlu-C18 diacid])-NH2; disulfide 4-14)	< 100
CC[C@H](C)[C@@H]1NC(=O)[C@@H](NC(=O)[C@H](Cc2ccccc2)NC(=O)[C@H](CCC(=O)O)NC(=O)[C@H](CO)NC(C)=O)CSSC[C@@H](C(=O)N(C)CC(=O)N[C@@H](CCC(=O)O)C(=O)NCC(=O)N[C@@H](CCC(=O)O)C(=O)NCCOCCOCC(=O)NCCOCCOCC(=O)N[C@@H](CCCCNC(=O)CC[C@H](NC(=O)CNC(=O)CC[C@H](NC(=O)CCCCCCCCCCCCCCC(=O)O)C(=O)O)C(=O)O)C(N)=O)NC(=O)[C@H](CCCNC(=N)N)NC(=O)[C@H](Cc2c[nH]cn2)NC(=O)[C@H](CCC(=O)O)NC(=O)CNC(=O)[C@H](Cc2c[nH]c3ccccc23)NC(=O)[C@H](CC(=O)O)NC(=O)[C@H](CCC(N)=O)NC(=O)[C@H](Cc2cn(C)c3ccccc23)NC1=O [Compound 127] (Ac-SEFCI[Trp(1-Me)]QDWGEHRC[Sar]EGE[AEEA][AEEA]K([γGlu-Gly-γGlu-C16 diacid])-NH2; disulfide 4-14)	< 100
CC[C@H](C)[C@H](NC(C)=O)C(=O)N[C@H]1CSSC[C@@H](C(=O)N[C@@H](CO)C(N)=O)NC(=O)[C@H](CCCNC(=N)N)NC(=O)[C@H](Cc2c[nH]cn2)NC(=O)[C@H](CCC(=O)O)NC(=O)CNC(=O)[C@H](Cc2c[nH]c3ccccc23)NC(=O)[C@H](CC(=O)O)NC(=O)[C@H](CCC(N)=O)NC(=O)[C@H](Cc2c[nH]c3ccccc23)NC(=O)[C@H]([C@@H](C)CC)NC1=O [Compound 21] (Ac-ICIWQDWGEHRCS-NH2; disulfide 2-12)	< 100
CC[C@H](C)[C@@H]1NC(=O)[C@@H](NC(=O)[C@H](Cc2ccc(O)cc2)NC(=O)[C@H](C)NC(=O)[C@H](CO)NC(=O)CNC(=O)[C@H](CCC(=O)O)NC(C)=O)CSSC[C@@H](C(=O)N[C@H](C(=O)N[C@@H](CCC(=O)O)C(N)=O)[C@@H](C)O)NC(=O)[C@H](CCCNC(=N)N)NC(=O)[C@H](Cc2c[nH]cn2)NC(=O)[C@H](CCC(=O)O)NC(=O)CNC(=O)[C@H](Cc2c[nH]c3ccccc23)NC(=O)[C@H](CC(=O)O)NC(=O)[C@H](CCC(N)=O)NC(=O)[C@H](Cc2cn(C)c3ccccc23)NC1=O [Compound 59] (Ac-EGSAYCI[Trp(1-Me)]QDWGEHRCTE-NH2; disulfide 6-16)	< 100

Same assay, conditions: human serum, sensitized sheep red blood cells; Table 4, valine 3 vs isoleucine 3 pairs; read-out: CP hemolysis IC50

SMILES	IC50 [nM]
CC[C@H](C)[C@H](NC(=O)[C@H](C)NC(=O)[C@H](CO)NC(=O)[C@H](CO)NC(=O)[C@H](CCC(=O)O)NC(C)=O)C(=O)N[C@H]1CSSC[C@@H](C(=O)N[C@H](C(N)=O)[C@@H](C)O)NC(=O)[C@H](CCCNC(=N)N)NC(=O)[C@H](Cc2c[nH]cn2)NC(=O)[C@H](CCC(=O)O)NC(=O)CNC(=O)[C@H](Cc2c[nH]c3ccccc23)NC(=O)[C@H](CC(=O)O)NC(=O)[C@H](CCC(N)=O)NC(=O)[C@H](Cc2c[nH]c3ccccc23)NC(=O)[C@H](C(C)C)NC1=O [C, reference compound] (Ac-ESSAICVWQDWGEHRCT-NH2; disulfide 6-16)	300
CC[C@H](C)[C@H](NC(C)=O)C(=O)N[C@H]1CSSC[C@@H](C(=O)N[C@H](C(N)=O)[C@@H](C)O)NC(=O)[C@H](CO)NC(=O)[C@H](Cc2c[nH]cn2)NC(=O)[C@H](CCC(=O)O)NC(=O)CNC(=O)[C@H](Cc2c[nH]c3ccccc23)NC(=O)[C@H](CC(=O)O)NC(=O)[C@H](CCC(N)=O)NC(=O)[C@H](Cc2c[nH]c3ccccc23)NC(=O)[C@H](C(C)C)NC1=O [F, reference compound] (Ac-ICVWQDWGEHSCT-NH2; disulfide 2-12)	540
CC[C@H](C)[C@H](NC(C)=O)C(=O)N[C@H]1CSSC[C@@H](C(=O)N[C@@H](CO)C(N)=O)NC(=O)[C@H](CCCNC(=N)N)NC(=O)[C@H](Cc2c[nH]cn2)NC(=O)[C@H](CCC(=O)O)NC(=O)CNC(=O)[C@H](Cc2c[nH]c3ccccc23)NC(=O)[C@H](CC(=O)O)NC(=O)[C@H](CCC(N)=O)NC(=O)[C@H](Cc2c[nH]c3ccccc23)NC(=O)[C@H]([C@@H](C)CC)NC1=O [Compound 21] (Ac-ICIWQDWGEHRCS-NH2; disulfide 2-12)	77
CC[C@H](C)[C@H](NC(C)=O)C(=O)N[C@H]1CSSC[C@@H](C(=O)N[C@H](C(N)=O)[C@@H](C)O)NC(=O)[C@H](CO)NC(=O)[C@H](Cc2c[nH]cn2)NC(=O)[C@H](C)NC(=O)CNC(=O)[C@H](Cc2c[nH]c3ccccc23)NC(=O)[C@H](CC(=O)O)NC(=O)[C@H](CCC(N)=O)NC(=O)[C@H](Cc2c[nH]c3ccccc23)NC(=O)[C@H](C(C)C)NC1=O [E, reference compound] (Ac-ICVWQDWGAHSCT-NH2; disulfide 2-12)	> 1000
